From US7585880B2, “Phenylpropanoic acid derivatives” (Takeda Pharmaceutical Company Limited, priority 2003, dated 2009)
pEC50: −log10 of the molar value.

Tests used:
human GPR40 = molecular target: T1, human GPR40 (Homo sapiens, UniProt O14842); test: Determination of EC50 against human GPR40: intracellular calcium change by FLIPR in CHO cells; format: cell-based; conditions: CHO cell line that stably expressed human GPR40; changes in intracellular calcium concentration measured by FLIPR (Fluo3-AM)
T1 construct: expressed in transfected cells
Method: Determination of EC50 of the Compound of the Present Invention Against Human GPR40
For determination of EC50, CHO cell line that stably expressed human GPR40 was used. Unless otherwise indicated, the CHO cell line was cultured using α-MEM medium (Invitrogen) containing 10% fetal calf serum (Invitrogen).
The cells cultured to nearly confluent were rinsed with PBS (Invitrogen) on the previous day of the assay, peeled off with 0.05% Trypsin-EDTA solution (Invitrogen) and recovered by centrifugation. The number of the obtained cells was counted, and the cells were diluted such that 3×10^5 cells were contained per 1 mL of the medium, dispensed to a black welled 96-well plate (coster) by 100 μL per well and cultured overnight in a CO2 incubator. Various test compounds were added to the CHO cells thus prepared, and the changes in the intracellular calcium concentration was measured using FLIPR (Molecular Device). The below-mentioned pre-treatment was applied to measure changes in the intracellular calcium concentration by FLIPR.
An assay buffer for adding a fluorescent dye Fluo3-AM (DOJIN) to the cells, or for washing the cells immediately before FLIPR assay was prepared. To a solution of 1M HEPES (pH 7.4, DOJIN, 20 mL) added to HBSS (Invitrogen, 1000 mL) (hereinafter HBSS/HEPES solution) was added a solution (10 mL) obtained by dissolving probenecid (Sigma, 710 mg) in 1N NaOH (5 mL), and adding and mixing an HBSS/HEPES solution (5 mL), and the resulting solution was used as an assay buffer. Fluo3-AM (50 μg) was dissolved in dimethylsulfoxide (Wako, 21 μL), and an equivalent amount of 20% pluronic acid (Molecular Probes) was added and mixed. The solution was added to the assay buffer (10.6 mL) supplemented with fetal calf serum (105 μL) to give a fluorescent dye solution. On the previous day of assay, the medium of the CHO cells newly inoculated to the black welled 96-well plate was removed, the fluorescent dye solution was immediately dispensed by 100 μL per well and the cells were cultured in a CO2 incubator for 1 hr to allow intake of the fluorescent dye by the cells. The cells after the culture were washed with the above-mentioned assay buffer and set on FLIPR. The test compound was diluted with dimethylsulfoxide in advance, dispensed to polypropylene 96-well plate (sample plate) by 2 μL, and cryopreserved at −20° C. To the thawed sample plate was added an assay buffer containing 0.015% CHAPS (DOJIN) by 198 μL, and simultaneously set on FLIPR together with the cell plate. After the aforementioned pre-treatment, changes in the intracellular calcium concentration upon addition of various test compounds was measured by FLIPR. Based on the results, a dose-response curve of each test compound was formed and EC50 was calculated.

T1 sequence (O14842 whole entry): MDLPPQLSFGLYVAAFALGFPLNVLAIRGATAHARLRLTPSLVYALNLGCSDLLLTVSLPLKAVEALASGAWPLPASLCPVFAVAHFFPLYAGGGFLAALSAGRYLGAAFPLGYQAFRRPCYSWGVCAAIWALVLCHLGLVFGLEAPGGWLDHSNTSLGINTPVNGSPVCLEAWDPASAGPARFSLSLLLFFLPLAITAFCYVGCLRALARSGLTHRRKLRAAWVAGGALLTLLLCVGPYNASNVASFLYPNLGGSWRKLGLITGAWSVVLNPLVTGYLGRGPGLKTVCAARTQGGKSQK

Compound	pEC50 (human GPR40)	melting point [°C]
O=C(O)CCc1c(F)cc(OCc2ccc(CN(CCc3ccccc3)c3nc(-c4ccccc4)cs3)cc2)cc1F [Example 42, 3-[2,6-difluoro-4-[[4-[[(2-phenylethyl)(4-phenyl-1,3-thiazol-2-yl)amino]methyl]benzyl]oxy]phenyl]propanoic acid]	7.19	
CC(C)c1csc(N(CCc2ccccc2)Cc2ccc(COc3ccc(CCC(=O)O)cc3)cc2)n1 [Example 2, 3-{4-[(4-{[(4-isopropyl-1,3-thiazol-2-yl)(2-phenylethyl)amino]methyl}benzyl)oxy]phenyl}propanoic acid]	7.32	
CCCN(Cc1ccc(COc2ccc(CCC(=O)O)cc2)cc1)c1nc(-c2ccccc2)c(C)o1 [Example 40, 3-[4-[[4-[[(5-methyl-4-phenyl-1,3-oxazol-2-yl)(propyl)amino]methyl]benzyl]oxy]phenyl]propanoic acid]	7.26	
O=C(O)CCc1ccc(OCc2ccc(CN(CCc3ccccn3)c3nc(-c4ccccc4)cs3)cc2)cc1 [Example 12, 3-{4-[(4-([(4-phenyl-1,3-thiazol-2-yl)(2-pyridin-2-ylethyl)amino]methyl}benzyl)oxy]phenyl)propanoic acid]	7.72	
CC(C)c1csc(N(CCc2ccc(F)cc2)Cc2ccc(COc3ccc(CCC(=O)O)c(F)c3)cc2)n1 [Example 9, 3-{2-fluoro-4-[(4-{[[2-(4-fluorophenyl)ethyl](4-isopropyl-1,3-thiazol-2-yl)amino]methyl}benzyl)oxy]-phenyl}propanoic acid]	7.42	
O=C(O)CCc1ccc(OCc2ccc(CN(CCc3ccccc3)c3nc(-c4ccccc4)cs3)cc2)cc1 [Example 32, 3-[4-[[4-[[(2-phenylethyl)(4-phenyl-1,3-thiazol-2-yl)amino]methyl]benzyl]oxy]phenyl]propanoic acid]		114 to 115
